Assay results taken from patent US20050070510A1, “Substituted tetracycline compounds as synergistic antifungal agents” (Paratek Pharmaceuticals, Inc., priority 2001, published 2005).

What follows are molecules tested on COS-1 cells (assay: In vitro mammalian cytotoxicity assay (Resazurin)).

SMILES | In Vitro Cytotoxicity
CN(C)[C@@H]1C(O)=C(C(N)=O)C(=O)[C@@]2(C#N)C(O)=C3C(=O)c4c(O)ccc(-c5cncnc5)c4C[C@@]3(N)C[C@@]12N [TQ] | * (toxicities greater than >25 μg/ml are represented by *)
CCOc1ccccc1-c1ccc(O)c2c1C[C@@]1(N)C[C@@]3(N)[C@H](N(C)C)C(O)=C(C(N)=O)C(=O)[C@@]3(C#N)C(O)=C1C2=O [ER] | ** (toxicities less than 25 μg/mL are represented by **)
CCCCCCOC(=O)NCc1cc(N(C)C)c2c(c1O)C(=O)C1=C(O)[C@]3(C#N)C(=O)C(C(N)=O)=C(O)[C@@H](N(C)C)[C@]3(N)C[C@]1(N)C2 [MS] | ** (toxicities less than 25 μg/mL are represented by **)
CN(C)c1ccc(-c2ccc(O)c3c2C[C@@]2(N)C[C@@]4(N)[C@H](N(C)C)C(O)=C(C(N)=O)C(=O)[C@@]4(C#N)C(O)=C2C3=O)cc1 [EM] | ** (toxicities less than 25 μg/mL are represented by **)
CCCCOCCCNCc1ccc(OC)c(-c2ccc(O)c3c2C[C@@]2(N)C[C@@]4(N)[C@H](N(C)C)C(O)=C(C(N)=O)C(=O)[C@@]4(C#N)C(O)=C2C3=O)c1 [NL] | * (toxicities greater than >25 μg/ml are represented by *)
CN(C)[C@@H]1C(O)=C(C(N)=O)C(=O)[C@@]2(C#N)C(O)=C3C(=O)c4c(O)ccc(/C=C/c5ccccn5)c4C[C@@]3(N)C[C@@]12N [FA] | ** (toxicities less than 25 μg/mL are represented by **)
CN(C)[C@@H]1C(O)=C(C(N)=O)C(=O)[C@@]2(C#N)C(O)=C3C(=O)c4c(O)ccc(-c5cc6ccccc6o5)c4C[C@@]3(N)C[C@@]12N [NW] | ** (toxicities less than 25 μg/mL are represented by **)
COC(=O)c1cc(N)cc(-c2ccc(O)c3c2C[C@@]2(N)C[C@@]4(N)[C@H](N(C)C)C(O)=C(C(N)=O)C(=O)[C@@]4(C#N)C(O)=C2C3=O)c1 [PT] | * (toxicities greater than >25 μg/ml are represented by *)
COc1ccc(C(=O)Nc2ccc(-c3ccc(O)c4c3C[C@@]3(N)C[C@@]5(N)C(N(C)C)C(O)=C(C(N)=O)C(=O)[C@@]5(C#N)C(O)=C3C4=O)cc2)cc1 (stereo partly drawn) [QR] | ** (toxicities less than 25 μg/mL are represented by **)
COCC#Cc1ccc(O)c2c1C[C@@]1(N)C[C@@]3(N)[C@H](N(C)C)C(O)=C(C(N)=O)C(=O)[C@@]3(C#N)C(O)=C1C2=O [HI] | * (toxicities greater than >25 μg/ml are represented by *)
CN(C)c1cc(CNC(=O)Oc2ccc(Br)cc2)c(O)c2c1C[C@@]1(N)C[C@@]3(N)[C@H](N(C)C)C(O)=C(C(N)=O)C(=O)[C@@]3(C#N)C(O)=C1C2=O [MV] | ** (toxicities less than 25 μg/mL are represented by **)
Cc1ccc(-c2ccc(O)c3c2C[C@@]2(N)C[C@@]4(N)[C@H](N(C)C)C(O)=C(C(N)=O)C(=O)[C@@]4(C#N)C(O)=C2C3=O)cc1C [OJ] | ** (toxicities less than 25 μg/mL are represented by **)
CN(C)[C@@H]1C(O)=C(C(N)=O)C(=O)[C@@]2(C#N)C(O)=C3C(=O)c4c(O)ccc(-c5ccc(Cl)o5)c4C[C@@]3(N)C[C@@]12N [FV] | ** (toxicities less than 25 μg/mL are represented by **)
COCCOC(=O)Nc1ccc(-c2ccc(O)c3c2C[C@@]2(N)C[C@@]4(N)[C@H](N(C)C)C(O)=C(C(N)=O)C(=O)[C@@]4(C#N)C(O)=C2C3=O)cc1 [PY] | * (toxicities greater than >25 μg/ml are represented by *)
COc1ccc(CNCCc2ccccc2)cc1-c1ccc(O)c2c1C[C@@]1(N)C[C@@]3(N)[C@H](N(C)C)C(O)=C(C(N)=O)C(=O)[C@@]3(C#N)C(O)=C1C2=O [NH] | ** (toxicities less than 25 μg/mL are represented by **)
CN(C)[C@@H]1C(O)=C(C(N)=O)C(=O)[C@@]2(C#N)C(O)=C3C(=O)c4c(O)ccc(-c5ccc(CN6CCCC6)c6ccccc56)c4C[C@@]3(N)C[C@@]12N [OO] | ** (toxicities less than 25 μg/mL are represented by **)
CN(C)[C@@H]1C(O)=C(C(N)=O)C(=O)[C@@]2(OC(=O)CC(C)(C)C)C(O)=C3C(=O)c4c(ccc(NC(=O)NC(C)(C)C)c4O)[C@H](N)[C@@]3(N)[C@H](O)[C@@]12N [BG] | ** (toxicities less than 25 μg/mL are represented by **)
CN(C)[C@@H]1C(O)=C(C(N)=O)C(=O)[C@@]2(C#N)C(O)=C3C(=O)c4c(O)ccc(-c5cc(F)cc(F)c5)c4C[C@@]3(N)C[C@@]12N [PM] | ** (toxicities less than 25 μg/mL are represented by **)
CCCCc1ccc(O)c2c1C[C@@]1(N)C[C@@]3(N)[C@H](N(C)C)C(O)=C(C(N)=O)C(=O)[C@@]3(C#N)C(O)=C1C2=O [KY] | ** (toxicities less than 25 μg/mL are represented by **)
CN(C)[C@@H]1C(O)=C(C(N)=O)C(=O)[C@@]2(C#N)C(O)=C3C(=O)c4c(O)ccc(C#CCCC#Cc5ccc(O)c6c5C[C@@]5(N)C[C@@]7(N)[C@H](N(C)C)C(O)=C(C(N)=O)C(=O)[C@@]7(C#N)C(O)=C5C6=O)c4C[C@@]3(N)C[C@@]12N [NC] | * (toxicities greater than >25 μg/ml are represented by *)
COc1cccc(C#Cc2cc(N(C)C)c3c(c2O)C(=O)C2=C(O)[C@]4(C#N)C(=O)C(C(N)=O)=C(O)[C@@H](N(C)C)[C@]4(N)C[C@]2(N)C3)c1 [JF] | ** (toxicities less than 25 μg/mL are represented by **)

SMILES | In Vitro Cytotoxicity
CO/N=C(/C)c1cc(C(C)(C)C)c(O)c2c1C[C@@]1(N)C[C@@]3(N)[C@H](N(C)C)C(O)=C(C(N)=O)C(=O)[C@@]3(C#N)C(O)=C1C2=O [RA] | ** (toxicities less than 25 μg/mL are represented by **)
CSc1ccc(OC(=O)Nc2cc(N(C)C)c3c(c2O)C(=O)C2=C(O)[C@]4(C#N)C(=O)C(C(N)=O)=C(O)[C@@H](N(C)C)[C@]4(N)C[C@]2(N)C3)cc1 [KR] | * (toxicities greater than >25 μg/ml are represented by *)
CN(C)[C@@H]1C(O)=C(C(N)=O)C(=O)[C@@]2(C#N)C(O)=C3C(=O)c4c(O)ccc(C5CCCC5)c4C[C@@]3(N)C[C@@]12N [JB] | ** (toxicities less than 25 μg/mL are represented by **)
CN(C)[C@@H]1C(O)=C(C(N)=O)C(=O)[C@@]2(C#N)C(O)=C3C(=O)c4c(O)ccc(-c5cccc(N)c5)c4C[C@@]3(N)C[C@@]12N [FC] | ** (toxicities less than 25 μg/mL are represented by **)
CCC#Cc1ccc(O)c2c1C[C@@]1(N)C[C@@]3(N)[C@H](N(C)C)C(O)=C(C(N)=O)C(=O)[C@@]3(C#N)C(O)=C1C2=O [JW] | ** (toxicities less than 25 μg/mL are represented by **)
CN(C)[C@@H]1C(O)=C(C(N)=O)C(=O)[C@@]2(C#N)C(O)=C3C(=O)c4c(ccc(Nc5ccc(-c6ccccc6)s5)c4O)[C@H](N)[C@@]3(N)[C@H](O)[C@@]12N [DT] | ** (toxicities less than 25 μg/mL are represented by **)
CN(C)[C@@H]1C(O)=C(C(N)=O)C(=O)[C@@]2(C#N)C(O)=C3C(=O)c4c(O)c(NC(=O)OCC(C)(C)C)cc(CN)c4C[C@@]3(N)C[C@@]12N [QM] | * (toxicities greater than >25 μg/ml are represented by *)
CC(CF)Nc1ccc(-c2ccc(O)c3c2C[C@@]2(N)C[C@@]4(N)[C@H](N(C)C)C(O)=C(C(N)=O)C(=O)[C@@]4(C#N)C(O)=C2C3=O)cc1 (stereo partly drawn) [VK] | ** (toxicities less than 25 μg/mL are represented by **)
CN(C)[C@@H]1C(O)=C(C(N)=O)C(=O)[C@@]2(C#N)C(O)=C3C(=O)c4c(O)ccc(-c5ccc(CNC(C)(C)C)o5)c4C[C@@]3(N)C[C@@]12N [SY] | * (toxicities greater than >25 μg/ml are represented by *)
CN(C)c1cc(CNCc2ccccc2)c(O)c2c1C[C@@]1(N)C[C@@]3(N)[C@H](N(C)C)C(O)=C(C(N)=O)C(=O)[C@@]3(C#N)C(O)=C1C2=O [TH] | * (toxicities greater than >25 μg/ml are represented by *)
CN(C)c1cc(C#Cc2cccnc2)c(O)c2c1C[C@@]1(N)C[C@@]3(N)[C@H](N(C)C)C(O)=C(C(N)=O)C(=O)[C@@]3(C#N)C(O)=C1C2=O [JH] | ** (toxicities less than 25 μg/mL are represented by **)
CCN(CC)c1ccc(-c2csc(Nc3ccc4c(c3O)C(=O)C3=C(O)[C@]5(C#N)C(=O)C(C(N)=O)=C(O)[C@@H](N(C)C)[C@]5(N)[C@@H](O)[C@]3(N)[C@H]4O)n2)cc1 [DU] | ** (toxicities less than 25 μg/mL are represented by **)
CN(C)[C@@H]1C(O)=C(C(N)=O)C(=O)[C@@]2(C#N)C(O)=C3C(=O)c4c(ccc(Nc5nc(C6C7CC8CC(C7)CC6C8)cs5)c4O)[C@H](O)[C@@]3(N)[C@H](O)[C@@]12N (stereo partly drawn) [DX] | ** (toxicities less than 25 μg/mL are represented by **)
COC(=O)c1ccc(O)c2c1C[C@@]1(N)C[C@@]3(N)[C@H](N(C)C)C(O)=C(C(N)=O)C(=O)[C@@]3(C#N)C(O)=C1C2=O [RV] | ** (toxicities less than 25 μg/mL are represented by **)
CN(C)[C@@H]1C(O)=C(C(N)=O)C(=O)[C@@]2(C#N)C(O)=C3C(=O)c4c(ccc(/C=C/c5ccc(F)cc5)c4O)[C@H](N)[C@@]3(N)[C@H](O)[C@@]12N [CE] | ** (toxicities less than 25 μg/mL are represented by **)
COc1ccc(-c2cc(N(C)C)c3c(c2O)C(=O)C2=C(O)[C@]4(C#N)C(=O)C(C(N)=O)=C(O)[C@@H](N(C)C)[C@]4(N)C[C@]2(N)C3)cc1 [EA] | ** (toxicities less than 25 μg/mL are represented by **)
Cc1ccc(CCc2ccc(O)c3c2CC2CC4[C@H](N(C)C)C(O)=C(C(N)=O)C(=O)[C@@]4(O)C(O)=C2C3=O)cc1 (stereo partly drawn) [Compound HG] | ** (toxicities less than 25 μg/mL are represented by **)
CC(C)c1cccc(-c2ccc(O)c3c2C[C@@]2(N)C[C@@]4(N)[C@H](N(C)C)C(O)=C(C(N)=O)C(=O)[C@@]4(C#N)C(O)=C2C3=O)c1 [OI] | ** (toxicities less than 25 μg/mL are represented by **)
CN(C)[C@@H]1C(O)=C(C(N)=O)C(=O)[C@@]2(C#N)C(O)=C3C(=O)c4c(O)c(CN)cc(-c5cccc([N+](=O)O)c5)c4C[C@@]3(N)C[C@@]12N [KB] | ** (toxicities less than 25 μg/mL are represented by **)
CN(C)CC(=O)NCc1cc(N(C)C)c2c(c1O)C(=O)C1=C(O)[C@]3(C#N)C(=O)C(C(N)=O)=C(O)[C@@H](N(C)C)[C@]3(N)C[C@]1(N)C2 [LG] | ** (toxicities less than 25 μg/mL are represented by **)
CC#Cc1cc(N(C)C)c2c(c1O)C(=O)C1=C(O)[C@]3(C#N)C(=O)C(C(N)=O)=C(O)[C@@H](N(C)C)[C@]3(N)C[C@]1(N)C2 [FH] | * (toxicities greater than >25 μg/ml are represented by *)
